Measurements as given in patent publication US20220378756A1, “ACTIVATING PYRUVATE KINASE R” (FORMA Therapeutics, Inc., priority 2019, published 2022).
Several values for one entry are separate records, joined by “and”; a condition that tells them apart may be missing. Equal entries are not always repeated.

Columns and labels:
[1] = biological target: T1, wt-PKR in mature human erythrocytes (Homo sapiens, UniProt P30613); assay: Cell assay: PKR activation in purified human RBCs (Biovision Pyruvate Kinase Assay); type: cell-based; conditions: 3 hr treatment
T1 construct: host or cells: purified human RBCs from donors
T1 sequence (P30613 whole entry): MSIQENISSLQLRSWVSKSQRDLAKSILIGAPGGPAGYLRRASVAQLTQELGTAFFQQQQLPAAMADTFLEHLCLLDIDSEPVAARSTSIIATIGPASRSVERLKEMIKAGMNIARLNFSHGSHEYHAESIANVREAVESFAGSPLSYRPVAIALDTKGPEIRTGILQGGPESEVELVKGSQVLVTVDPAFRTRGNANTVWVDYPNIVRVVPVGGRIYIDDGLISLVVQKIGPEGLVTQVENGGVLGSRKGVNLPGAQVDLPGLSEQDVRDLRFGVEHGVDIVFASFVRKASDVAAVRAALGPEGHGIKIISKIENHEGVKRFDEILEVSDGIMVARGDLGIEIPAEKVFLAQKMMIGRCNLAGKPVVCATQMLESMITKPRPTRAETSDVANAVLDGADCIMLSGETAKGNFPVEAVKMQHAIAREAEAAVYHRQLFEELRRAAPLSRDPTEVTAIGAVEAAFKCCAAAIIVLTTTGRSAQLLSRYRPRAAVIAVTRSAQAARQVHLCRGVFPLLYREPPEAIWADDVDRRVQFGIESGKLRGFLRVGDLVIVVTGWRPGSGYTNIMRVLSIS
Description: The activation of wt-PKR by Compound 1 in mature human erythrocytes ex vivo was evaluated in purified RBCs purchased from Research Blood Components. Cells treated with Compound 1 for 3 hr in glucose-containing media were washed, lysed, and assayed using a Biovision Pyruvate Kinase Assay (K709-100). The assay was repeated multiple times to account for donor-to-donor variability and the relatively narrow dynamic range.

[2] = system: Berkeley SS mouse (human HgbS); assay: Berkeley SS mouse model of SCD, 7 days in chow; type: in vivo; conditions: 1000 ppm in chow
Source text: Targeted gene deletions and a human transgene in the Berkeley SS mouse model result in mice that express human HgbS almost exclusively (Pászty C. Transgenic and gene knock-out mouse models of sickle cell anemia and the thalassemias. Curr Opin Hematol. 1997 March; 4(2):88-93) and mimic the genetic, hematologic, and histopathologic features of SCD in humans. These include irreversibly sickled RBCs, anemia, and multi-organ pathology.
The effects of Compound 1 on Hgb affinity for oxygen, percentage of sickled cells, and/or Hgb were evaluated in the Berkley SS mouse. Two studies were conducted where mice received 0 or 1000 ppm Compound 1 ad libitum in mouse chow for 7 days. Blood was drawn on Day 7 and analyzed under hypoxic conditions. Red cell parameters were measured by ADVIA.

[3] = Phase 1, SCD patients single 700 mg dose: safety; type: in vivo, human
Description: In this study, SAD/MAD cohorts are randomized (3 to 1) to receive Compound 1 or placebo (P). Compound 1 was evaluated first in 4 healthy SAD cohorts and 4 healthy MAD (14-day dosing period) cohorts. Based on the safety, and PK/PD profile from HS, Compound 1 is then evaluated in 1 SCD SAD cohort and 2 SCD MAD cohorts. Specifically, based on the safety and pharmacokinetic/pharmacodynamics (PK/PD) profile in healthy volunteer studies, Compound 1 is evaluated in patients (pts) with SCD, first in a single dose (SD or SAD) cohort and then in multiple-dose (MD or MAD) cohorts (14-day and 12-week). Safety assessments include AEs, vital signs, ECGs and laboratory parameters. PK/PD blood sampling was performed on Day 1 (SAD/MAD) and Day 14 (MAD) and up to 72 h after the last dose and at the end-of-study visit. PD parameters included 2,3-DPG, ATP, and p50 in all cohorts with additional PD studies (including oxygen scan) performed only in the SCD cohorts. PD parameters included 2,3-DPG, ATP, p50, RBC deformability with controlled deoxygenation and reoxygenation (Lorrca® oxygen scan) and varying osmolality (Lorrca® osmoscan)). To maintain study blind, pt identifiers were removed when needed.
In the SD cohort, 7 pts (2 males, 5 females, all HbSS) received 700 mg Compound 1 (n=5) or placebo (n=2).
All SCD patients who received a single 700 mg dose of Compound 1 or placebo were monitored for adverse events for 7 days. The incidence of treatment emergent adverse events (TEAEs) in SCD patients receiving Compound 1 (700 mg) or placebo are reported in Table 23. Six TEAEs were reported in 4 patients; all TEAEs were grade 1 and transient. Specifically, six TEAEs were reported in 4 of 7 ([…]) patients, including 3 TEAEs (arthralgia, headache, palpitations) in 2 of 5 ([…]) pts receiving Compound 1 and 3 TEAEs (back pain, myalgia, pruritis) in 2 of 2 (100%) pts receiving placebo; all TEAEs were grade 1 and transient. […] One possibly related TEAE (palpitations) occurred about 8 hours post dose. No other symptoms were observed, and the palpitations resolved in <1 minute. […] The single 700 mg dose of Compound 1 was considered tolerable, and the first multiple dose SCD cohort (“Dose 1” in FIG. 28) was initiated.

[4] = Preclinical safety and in vitro panels
[5] = system: ATP and 2,3-DPG levels in blood cells; assay: 28-day daily dosing in non-human primates; type: in vivo
Description: 2,3-DPG levels in blood cells from non-human primates receiving daily doses of Compound 1 at 100, 350 and 550 mg/kg for 28 days were measured. Dose dependent decreases in 2,3-DPG levels were observed, with up to a 40% decrease from pretreatment levels, as illustrated in FIG. 22.

## O=C([C@H](CO)c1ccccc1)N1CC2=C(C1)CN(S(=O)(=O)c1cnc3c(c1)OCCO3)C2 (single isomer, unassigned) [Compound 1]
[1]; individual replicates 1-4
  Max-Min (%): <125% and <150% and <100% and <50%
[1]; mean of replicates
  Max-Min (%), mean maximum activation increase: <100%
[2]
  Hgb increase: ≈ 1 g/dL
[3]; SCD single dose cohort
  serious adverse events / TEAEs leading to withdrawal: No serious adverse events (SAEs) or TEAEs leading to pt withdrawal
[3]; SCD, 700 mg single dose, N = 5
  Any TEAE, n (%): 2 (40) n (%)
  TEAE related to study drug, n (%): 1 (20) n (%)
[3]; SCD, 700 mg single dose, 3 TEAEs (arthralgia, headache, palpitations), grade 1
  pts with TEAEs (2 of 5): 40%
[4]
  preclinical evidence of arrhythmia risk, mutagenicity, nonspecific binding: has not demonstrated any preclinical evidence of arrhythmia risk, mutagenicity, or nonspecific binding activity
[5]; 550 mg/kg daily for 28 days (highest dose)
  increase in ATP levels compared to pre-treatment: 90%
[5]; daily doses 100, 350 and 550 mg/kg for 28 days
  decrease in 2,3-DPG from pretreatment levels: ≤ 40%
